Test system: plants
Assay: Test D pre-emergence, other plants of Tables D1 and D3
Assay type: in vivo
Details: for damage to plant (100=total damage to plant; 0=no damage to plant), SORVU: preemergent, 20 DAA; for damage to plant, ALOMY / damage to plant, AVEFA / damage to plant, BEAVA / damage to plant, BROTE / damage to plant, BRSNN / damage to plant, CHEAL / damage to plant, GALAP / damage to plant, HORVW / damage to plant, KCHSC / damage to plant, LOLPE / damage to plant, POAAN / damage to plant, POLCO / damage to plant, SINAR / damage to plant, STEME / damage to plant, VERPE: pre-emergence, 100=total damage, 0=no damage
In short: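 Damage was rated visually from 0 (none) to 100 (total), at 20 DAA for pre-emergence and 15 d for post-emergence. Plants grew from safener-treated seed in a glasshouse at 24/18° C. or 20/16° C. day/night, 65% humidity, watered twice daily.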

Compound: CN1C[C@H](c2nn(C)c3c(F)cccc23)[C@@H](C(=O)Nc2cccc(F)c2F)C1=O [Compound 2]
- damage to plant (100=total damage to plant; 0=no damage to plant), SORVU (rate 130): 0
- damage to plant (100=total damage to plant; 0=no damage to plant), SORVU (rate 250): 0
- damage to plant (100=total damage to plant; 0=no damage to plant), SORVU (rate 500): 0
- damage to plant, ALOMY (rate 15, 20 DAA): 0
- damage to plant, AVEFA (rate 15, 20 DAA): 0
- damage to plant, BEAVA (rate 15, 20 DAA): 0
- damage to plant, BROTE (rate 15, 20 DAA): 0
- damage to plant, BRSNN (rate 15, 20 DAA): 0
- damage to plant, CHEAL (rate 15, 20 DAA): 0
- damage to plant, GALAP (rate 15, 20 DAA): 0
- damage to plant, HORVW (rate 15, 20 DAA): 0
- damage to plant, KCHSC (rate 15, 20 DAA): 0
- damage to plant, LOLPE (rate 15, 20 DAA): 0
- damage to plant, POAAN (rate 15, 20 DAA): 0
- damage to plant, POLCO (rate 15, 20 DAA): 0
- damage to plant, SINAR (rate 15, 20 DAA): 0
- damage to plant, STEME (rate 15, 20 DAA): 0
- damage to plant, VERPE (rate 15, 20 DAA): 0
- damage to plant, ALOMY (rate 30, 20 DAA): 0
- damage to plant, AVEFA (rate 30, 20 DAA): 0
- damage to plant, BEAVA (rate 30, 20 DAA): 0
- damage to plant, BROTE (rate 30, 20 DAA): 0
- damage to plant, BRSNN (rate 30, 20 DAA): 0
- damage to plant, CHEAL (rate 30, 20 DAA): 0
- damage to plant, GALAP (rate 30, 20 DAA): 0
- damage to plant, HORVW (rate 30, 20 DAA): 0
- damage to plant, KCHSC (rate 30, 20 DAA): 0
- damage to plant, LOLPE (rate 30, 20 DAA): 0
- damage to plant, POAAN (rate 30, 20 DAA): 0
- damage to plant, POLCO (rate 30, 20 DAA): 0
- damage to plant, SINAR (rate 30, 20 DAA): 0
- damage to plant, STEME (rate 30, 20 DAA): 0
- damage to plant, VERPE (rate 30, 20 DAA): 0
- damage to plant, ALOMY (rate 60, 20 DAA): 0
- damage to plant, AVEFA (rate 60, 20 DAA): 0
- damage to plant, BEAVA (rate 60, 20 DAA): 0
- damage to plant, BROTE (rate 60, 20 DAA): 0
- damage to plant, BRSNN (rate 60, 20 DAA): 0
- damage to plant, CHEAL (rate 60, 20 DAA): 0
- damage to plant, GALAP (rate 60, 20 DAA): 0
- damage to plant, HORVW (rate 60, 20 DAA): 0
- damage to plant, KCHSC (rate 60, 20 DAA): 0
- damage to plant, LOLPE (rate 60, 20 DAA): 10
- damage to plant, POAAN (rate 60, 20 DAA): 0
- damage to plant, POLCO (rate 60, 20 DAA): 0
- damage to plant, SINAR (rate 60, 20 DAA): 0
- damage to plant, STEME (rate 60, 20 DAA): 0
- damage to plant, VERPE (rate 60, 20 DAA): 0
- damage to plant, ALOMY (rate 130, 20 DAA): 0
- damage to plant, AVEFA (rate 130, 20 DAA): 0
- damage to plant, BEAVA (rate 130, 20 DAA): 0
- damage to plant, BROTE (rate 130, 20 DAA): 10
- damage to plant, BRSNN (rate 130, 20 DAA): 0
- damage to plant, CHEAL (rate 130, 20 DAA): 0
- damage to plant, GALAP (rate 130, 20 DAA): 0
- damage to plant, HORVW (rate 130, 20 DAA): 0
- damage to plant, KCHSC (rate 130, 20 DAA): 0
- damage to plant, LOLPE (rate 130, 20 DAA): 30
- damage to plant, POAAN (rate 130, 20 DAA): 10
- damage to plant, POLCO (rate 130, 20 DAA): 20
- damage to plant, SINAR (rate 130, 20 DAA): 0
- damage to plant, STEME (rate 130, 20 DAA): 0
- damage to plant, VERPE (rate 130, 20 DAA): 0
- damage to plant, ALOMY (rate 250, 20 DAA): 20
- damage to plant, AVEFA (rate 250, 20 DAA): 0
- damage to plant, BEAVA (rate 250, 20 DAA): 0
- damage to plant, BROTE (rate 250, 20 DAA): 20
- damage to plant, BRSNN (rate 250, 20 DAA): 10
- damage to plant, CHEAL (rate 250, 20 DAA): 0
- damage to plant, GALAP (rate 250, 20 DAA): 0
- damage to plant, HORVW (rate 250, 20 DAA): 10
- damage to plant, KCHSC (rate 250, 20 DAA): 0
- damage to plant, LOLPE (rate 250, 20 DAA): 60
- damage to plant, POAAN (rate 250, 20 DAA): 50
- damage to plant, POLCO (rate 250, 20 DAA): 20
- damage to plant, SINAR (rate 250, 20 DAA): 0
- damage to plant, STEME (rate 250, 20 DAA): 0
- damage to plant, VERPE (rate 250, 20 DAA): 0
- damage to plant, ALOMY (rate 500, 20 DAA): 40
- damage to plant, AVEFA (rate 500, 20 DAA): 10
- damage to plant, BEAVA (rate 500, 20 DAA): 10
- damage to plant, BROTE (rate 500, 20 DAA): 20
- damage to plant, BRSNN (rate 500, 20 DAA): 20
- damage to plant, CHEAL (rate 500, 20 DAA): 0
- damage to plant, GALAP (rate 500, 20 DAA): 0
- damage to plant, HORVW (rate 500, 20 DAA): 20
- damage to plant, KCHSC (rate 500, 20 DAA): 0
- damage to plant, LOLPE (rate 500, 20 DAA): 70
- damage to plant, POAAN (rate 500, 20 DAA): 90
- damage to plant, POLCO (rate 500, 20 DAA): 60
- damage to plant, SINAR (rate 500, 20 DAA): 0
- damage to plant, STEME (rate 500, 20 DAA): 60
- damage to plant, VERPE (rate 500, 20 DAA): 0

Reference: patent US20220281848A1, “PYRAZOLE-SUBSTITUTED PYRROLIDINONES AS HERBICIDES” (FMC Corporation, priority 2019, published 2022)
